Test results: PubChem BioAssay AID2060885 (Molecular Pharmacology Branch, DTP, NCI, 2025)

Tested on: NCI-H23 complex spheroids with HUVEC/MSC, viability
Test: Anticancer human tumor NCI-H23 cell line growth inhibition [RAS];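 as to viability, T/C: 100% = DMSO vehicle control viability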
Details: for viability, T/C: stronger effect = lower value
Text: RAS pathway inhibitors in Combinations in Complex Spheroids
A high-throughput screen of multi-cell type tumor spheroids was designed to identify active combinations of RAS pathway inhibitors and targeted small molecules. Complex spheroids include a stromal component modeled by human endothelial cells (HUVEC) and fibroblasts modeled by human mesenchymal stem cells (MSCs). The concentration ranges selected for each drug and investigational agent were based upon clinically achievable concentrations if the clinical Cmax of the agent was known.
Compounds. The drugs and investigational agents: abemaciclib (NSC768073), cobimetinib (NSC768068), divarasib (GDC6063, NSC841802), docetaxel (NSC628503), GDC-1971 (RLY-1971, NSC841576), gemcitabine (NSC613327), inavolisib (NSC800729), ipatasertib (NSC767898), KB-0742 (NSC834161), MRTX-1133 (NSC836407), osimertinib (NSC779217), RMC-4630 (NSC839698), RMC-6236 (NSC851965), RMC-6291 (NSC852671), Ro-3306 (NSC812927), sapanisertib (NSC764658), SN-38 (NSC673596), staurosporine (NSC755774), SY5609 (NSC837396), and tovorafenib (DAY101, NSC766906), were obtained from the National Cancer Institute (NCI) Developmental Therapeutics Program Chemical Repository. The FDA-approved anticancer drug set is available from the NCI Developmental Therapeutics Program. […] The stock solutions were prepared in dimethyl sulfoxide (DMSO, Sigma-Aldrich, St. Louis, MO, cat. D2650) at 800-fold the tested concentration and stored at -70 degrees C prior to their use. All drugs and investigational agents were tested over a range starting from a high concentration at or near the clinical Cmax and decreasing in half-log increments. If the clinical Cmax for an agent had not been determined, the highest concentration tested was 10 microM.
Cell Culture. All cells were maintained in an incubator at 37 degrees C and 5% CO2 with 95% humidity. The PDC lines were cultured according to standard operating procedures established by the NCI PDMR. All PDCs were thawed and cultured in Matrigel-coated flasks prepared with a working solution of 1X Ham's F-12 nutrient mix, without supplementation (Invitrogen, Waltham, MA, cat. 11765054), 100 U/mL penicillin-streptomycin (Invitrogen, cat. 15140122), and 2.5% Matrigel (Corning Inc., Corning, NY, cat. 354248) for the first three passages. The 362531-283-R-J2-PDC and 782815-120-R-J1-PDC lines were cultured in 6C/Colon 1B media, which includes advanced DMEM/F-12 (Thermo Fisher Scientific, cat. 12634028), 10 mM HEPES (Thermo Fisher Scientific, cat. 15630080), 1X GlutaMAX supplement (Thermo Fisher Scientific, cat. 35050061), 0.1 mg/mL primocin (InvivoGen, San Diego, CA, cat. ant-pm-2), 10% defined fetal bovine serum, heat inactivated (HyClone Laboratories Inc., Logan, UT, cat. SH30070.03HI), 50% L-WRN conditioned media (ATCC, cat. CRL-3276), 1.25 mM N-Acetyl-L-cysteine (Sigma-Aldrich, cat. A9165), 10 mM nicotinamide (Sigma-Aldrich, cat. N0636), 1X B-27 supplement (Thermo Fisher Scientific, cat. 17504044), 1X N-2 supplement (Thermo Fisher Scientific, cat. 17502048), 50 ng/mL human EGF (Thermo Fisher Scientific, cat. PHG0311), and 10 microM Y-27632 dihydrochloride (Tocris Bioscience, cat. 1254). The K12877-001-R-J1-PDC line was cultured in 6I media, which includes all 6C/Colon 1B media plus 10 ng/mL human FGF-10 (PeproTech, cat. 100-26), 1 ng/mL human FGF-2 (PeproTech, cat. 100-18B), 1 µM prostaglandin E2 (Tocris Bioscience, cat. 2296), […] hydrocortisone (Sigma-Aldrich, cat. H4001), and […] bovine insulin (Sigma-Aldrich, cat. I6634). The K86415-001-R-J1-PDC line was cultured in 6D media, which includes all 6C/Colon 1B media components minus the L-WRN conditioned media. The 485176-168-R4-J1-PDC was cultured in PANC media, which includes all 6C/Colon 1B media plus 100 ng/mL human FGF-10 (PeproTech, cat. 100-26), 500 nM SB-431542 (Selleckchem, cat. S1067), and 10 nM gastrin (Tocris Bioscience, cat. 3006). […]

[1] = curve of first compound, second compound 0.0316 µM
[2] = curve of first compound, second compound 0.1 µM
[3] = curve of first compound, second compound 0.316 µM
[4] = curve of first compound, second compound 1 µM
[5] = curve of first compound, second compound 3.16 µM
[6] = curve of first compound, second compound 10 µM
[7] = second compound 0.0316 µM, first compound 0.00316 µM
[8] = second compound 0.0316 µM, first compound 0.01 µM
[9] = second compound 0.0316 µM, first compound 0.0316 µM
[10] = second compound 0.0316 µM, first compound 0.1 µM
[11] = second compound 0.0316 µM, first compound 0.316 µM
[12] = second compound 0.0316 µM, first compound 1 µM
[13] = second compound 0.1 µM, first compound 0.00316 µM
[14] = second compound 0.1 µM, first compound 0.01 µM
[15] = second compound 0.1 µM, first compound 0.0316 µM
[16] = second compound 0.1 µM, first compound 0.1 µM
[17] = second compound 0.1 µM, first compound 0.316 µM
[18] = second compound 0.1 µM, first compound 1 µM
[19] = second compound 0.316 µM, first compound 0.00316 µM
[20] = second compound 0.316 µM, first compound 0.01 µM
[21] = second compound 0.316 µM, first compound 0.0316 µM
[22] = second compound 0.316 µM, first compound 0.1 µM
[23] = second compound 0.316 µM, first compound 0.316 µM
[24] = second compound 0.316 µM, first compound 1 µM
[25] = second compound 1 µM, first compound 0.00316 µM
[26] = second compound 1 µM, first compound 0.01 µM
[27] = second compound 1 µM, first compound 0.0316 µM
[28] = second compound 1 µM, first compound 0.1 µM
[29] = second compound 1 µM, first compound 0.316 µM
[30] = second compound 1 µM, first compound 1 µM
[31] = second compound 3.16 µM, first compound 0.00316 µM
[32] = second compound 3.16 µM, first compound 0.01 µM
[33] = second compound 3.16 µM, first compound 0.0316 µM
[34] = second compound 3.16 µM, first compound 0.1 µM
[35] = second compound 3.16 µM, first compound 0.316 µM
[36] = second compound 3.16 µM, first compound 1 µM
[37] = second compound 10 µM, first compound 0.00316 µM
[38] = second compound 10 µM, first compound 0.01 µM
[39] = second compound 10 µM, first compound 0.0316 µM
[40] = second compound 10 µM, first compound 0.1 µM
[41] = second compound 10 µM, first compound 0.316 µM
[42] = second compound 10 µM, first compound 1 µM

With CC(=O)OC12COC1CC(O)C1(C)C(=O)C(O)C3=C(C)C(OC(=O)C(O)C(NC(=O)OC(C)(C)C)c4ccccc4)CC(O)(C(OC(=O)c4ccccc4)C21)C3(C)C (configuration not stated) the viability, T/C (compound 0.0316 µM) was 31.2% [middle of 4 runs], the viability, T/C (compound 0.1 µM) was 32.3% [middle of 4 runs] and the viability, T/C (compound 0.316 µM) was 28.2% [middle of 4 runs]. For the same compound, the viability, T/C (compound 1 µM) was 34.6% [middle of 4 runs], the viability, T/C (compound 3.16 µM) was 50.4% [middle of 4 runs] and the viability, T/C (compound 10 µM) was 63.5% [middle of 4 runs]. The IC50 (curve of compound) was < 31.6 nM.
For NC1c2ccccc2OC12CCN(c1cnc3c(N4CCCc5ncccc54)n[nH]c3n1)CC2 (configuration not stated), the viability, T/C (compound 0.0316 µM) was 72.5% [middle of 4 runs], the viability, T/C (compound 0.1 µM) was 66.6% [middle of 4 runs] and the viability, T/C (compound 0.316 µM) was 44.9% [middle of 4 runs]. For the same compound, the viability, T/C (compound 1 µM) was 42.2% [middle of 4 runs], the viability, T/C (compound 3.16 µM) was 41.3% [middle of 4 runs] and the viability, T/C (compound 10 µM) was 44.1% [middle of 4 runs].
C=CC(=O)Nc1cc(Nc2nccc(-c3cn(C)c4ccccc34)n2)c(OC)cc1N(C)CCN(C)C + C#Cc1c(F)ccc2cc(O)cc(-c3ncc4c(N5CC6CCC(C5)N6)nc(OCC56CCCN5CC(F)C6)nc4c3F)c12 was tested, and the IC50 [1] was > 1000 nM, the IC50 [2] was > 1000 nM and the IC50 [3] was > 1000 nM. The IC50 [4] was > 1000 nM, the IC50 [5] was 81.8 nM and the IC50 [6] was < 3.16 nM. For the same compound, the viability, T/C [7] was 101%, the viability, T/C [8] was 128% and the viability, T/C [9] was 101%. The viability, T/C [10] was 99.2%, the viability, T/C [11] was 98.4% and the viability, T/C [12] was 102%. The viability, T/C [13] was 109%, the viability, T/C [14] was 113% and the viability, T/C [15] was 95.7%. The viability, T/C [16] was 93.6%, the viability, T/C [17] was 101% and the viability, T/C [18] was 112%. It also gave a viability, T/C [19] of 104%, a viability, T/C [20] of 122% and a viability, T/C [21] of 95.5%. It also gave a viability, T/C [22] of 90%, a viability, T/C [23] of 89.8% and a viability, T/C [24] of 89.3%. The viability, T/C [25] was 107%, the viability, T/C [26] was 109% and the viability, T/C [27] was 93%. For the same compound, the viability, T/C [28] was 86.6%, the viability, T/C [29] was 77.1% and the viability, T/C [30] was 85.3%. For the same compound, the viability, T/C [31] was 64.5%, the viability, T/C [32] was 64.1% and the viability, T/C [33] was 60.2%. For the same compound, the viability, T/C [34] was 47.3%, the viability, T/C [35] was 43.5% and the viability, T/C [36] was 52.8%. For the same compound, the viability, T/C [37] was 41.9%, the viability, T/C [38] was 45.8% and the viability, T/C [39] was 36.1%. For the same compound, the viability, T/C [40] was 34%, the viability, T/C [41] was 30% and the viability, T/C [42] was 30.1%.
O=C(c1ccc(F)c(F)c1Nc1ccc(I)cc1F)N1CC(O)([C@@H]2CCCCN2)C1 + C#Cc1c(F)ccc2cc(O)cc(-c3ncc4c(N5CC6CCC(C5)N6)nc(OCC56CCCN5CC(F)C6)nc4c3F)c12 showed an IC50 [1] of 82.6 nM, an IC50 [2] of 77.3 nM and an IC50 [3] of 73.2 nM. The IC50 [4] was 68.3 nM, the IC50 [5] was 15.4 nM and the IC50 [6] was < 3.16 nM. For the same compound, the viability, T/C [7] was 108%, the viability, T/C [8] was 105% and the viability, T/C [9] was 70.8%. The viability, T/C [10] was 44.1%, the viability, T/C [11] was 35.9% and the viability, T/C [12] was 19.1%. The viability, T/C [13] was 103%, the viability, T/C [14] was 103% and the viability, T/C [15] was 65.1%. The viability, T/C [16] was 47.1%, the viability, T/C [17] was 30.9% and the viability, T/C [18] was 21.6%. For the same compound, the viability, T/C [19] was 99.8%, the viability, T/C [20] was 112% and the viability, T/C [21] was 72.6%. It also gave a viability, T/C [22] of 42.5%, a viability, T/C [23] of 31.1% and a viability, T/C [24] of 20.4%. It also gave a viability, T/C [25] of 91.2%, a viability, T/C [26] of 95.8% and a viability, T/C [27] of 60.4%. It also gave a viability, T/C [28] of 43.8%, a viability, T/C [29] of 34.4% and a viability, T/C [30] of 21.1%. The viability, T/C [31] was 56.3%, the viability, T/C [32] was 58.7% and the viability, T/C [33] was 42.4%. For the same compound, the viability, T/C [34] was 40%, the viability, T/C [35] was 30.3% and the viability, T/C [36] was 17%. The viability, T/C [37] was 36.5%, the viability, T/C [38] was 38.3% and the viability, T/C [39] was 31.6%. For the same compound, the viability, T/C [40] was 31.9%, the viability, T/C [41] was 22.1% and the viability, T/C [42] was 12.3%.
